Experiment [1] concerns HeLa cells. The experiment is described as follows: FACS analysis of the cell cycle (propidium iodide DNA content). The experiment is classed as cell-based, human. The following applies: for cells in G1 phase / cells in G2/M phase: 24 h after treatment; for mitotic index: DMSO control 0.16. Here is the method: HeLa human cervical carcinoma cell line, the human breast cancer cell line MCF7, and the human colorectal carcinoma cell line SW480 were maintained in Dulbecco's Modified Eagle's medium (DMEM, PAA, Pasching Austria). The colorectal cell line HT29 was cultured in McCoy's 5A medium (PAA, Pasching, Austria). DMEM medium was supplemented with 10% fetal calf serum, sodium pyruvate, non-essential amino acids, penicillin and streptomycin, McCoy's 5A medium was supplemented with 10% fetal calf serum, penicillin and streptomycin. All cell lines were cultured at 37° C. in a 5% CO2 humidified atmosphere. Further, fluorescent activated cell sorting (FACS) was used successfully to analyze the cell cycle and mitotic arrest under the influence of indoloquinolizines. HeLa cells were fixed and stained for FACS analysis 24 h after compound treatment. Cells were trypsinized and combined with any floating cells, pelleted, and resuspended in 1 ml PBS. Ice cold ethanol (70%) was added, and samples were incubated at −20° C. until analysis. After fixation the cells were pelleted, resuspended in 500 μl staining solution (50 μg/ml propidium iodide, 0.1 mg/ml RNase A, 0.05% Triton X-100) and incubated for 40 min at 37° C. 3 ml PBS were added; the cells were pelleted again and resuspended in 500 μl PBS. The DNA content was measured with a Becton Dickinson LSRII and analyzed with FlowJo 7.5 software. The cell cycle of compound treated HeLa cells was analyzed by fluorescence activated cell sorting (FIG. 1). […] A similar distribution is given in (−)-1-01 treated cells (FIGS. 1c and 1d); here 9% are in G1 and 38% in G2/M phase (25 μM) respectively; 8% in G1 and 40% in G2/M phase (50 μM). This means that the mitotic index is increased by more than two fold (from 0.16 to 0.38 respectively 0.40), indicating a mitotic arrest after compound treatment.
(In general: A flow cytometer gives signals particle by particle.)

The subject of experiment [2] is prostate carcinoma cells PC3. The experiment is described as follows: WST-1 cell viability and proliferation assay. The following applies: PC3, 3.125 up to 50 μM, 19 h. The experiment is classed as cell-based. Here is the method:
(§1) HeLa human cervical carcinoma cell line, the human breast cancer cell line MCF7, the African green monkey kidney cell line BS-C-1 and the human colorectal carcinoma cell lines HCT116 and SW480 were maintained in Dulbecco's Modified Eagle's medium (DMEM, PAA, Pasching Austria). The colorectal cell line HT29 was cultured in McCoy's 5A medium (PAA, Pasching, Austria). The prostate carcinoma cells PC3 and the osteosarcoma cells Saos2 were cultured in RPMI medium (PAA, Pasching Austria). All media were supplemented with 10% fetal calf serum, L-glutamine, penicillin and streptomycin. All cell lines were maintained at 37° C. in a 5% CO2 humidified atmosphere.
(§2) The cell proliferation was determined as a function of the metabolic activity by means of the cell proliferation reagent WST-1 (Roche, Mannheim Germany). Cells were plated in quadruplicates into the wells of 96 well plates and were allowed to attach for 24 hours. Cells were then treated with different concentrations of the compounds for 19 hours. All samples contained 0.5% DMSO. Control cells were treated with 0.5% DMSO or 20 μM doxorubicin or 1 μM staurosporine. After the treatment the WST-1 reagent was added to the cells according to the manufacturer's protocol. The absorbance was measured with the TECAN Inifinite® M200 plate reader at 450/690 nm. The blank value was subtracted from each value and the percentage of viable cells was determined compared to the DMSO treated cells.
(§3) The biological activity of the indoloquinolizines was evaluated in different cell lines by means of WST-1 assay. Cells were treated with different compound concentrations (3.125 up to 50 μM) for 19 h. In HeLa cells the (−)-enantiomers of 1-01 and 1-04 caused the most dramatic decrease in cell proliferation rate with increasing concentrations (FIG. 3). At 50 μM concentration (−)-1-01 reduced the cell proliferation rate to 60% and (−)-1-04 to 67% (FIG. 3).

The test system of a further experiment is osteosarcoma cells Saos2. The experiment is described as follows: WST-1 cell viability and proliferation assay. Format: cell-based. The settings on record: Saos2, 3.125 up to 50 μM, 19 h. The protocol: as §1, §2, §3
For orientation: Tetrazolium dyes change colour on reduction, which living cells bring about.

The test system of experiment [3] is colorectal cell line HT29. The experiment is described as follows: WST-1 cell viability and proliferation assay. The experiment is classed as cell-based. The following applies: HT29, 3.125 up to 50 μM, 19 h. Here is the method: as §1, §2, §3
The test system of the next experiment is all cell lines but Saos2. The experiment is described as follows: Apo-ONE homogeneous caspase-3/7 assay (apoptosis), summary statement. Format: cell-based. The settings on record: all cell lines but Saos2, 42 h. The protocol: as §1
(§4) Therefore we measured the caspase-3/7 activity in different cell lines with the Apo-ONE® homogeneous caspase-3/7 assay.
(§5) Caspase-3/7 activities were determined using the Apo-ONE® homogeneous caspase-3/7 assay (Promega, Mannheim Germany) according to the manufacturer's protocol. Briefly, cells were plated in quadruplicates in 384-well cell culture plate. After 24 hours cells were exposed for 42 hours to the compounds at different concentrations. Control cells were treated with 0.5% DMSO or staurosporine (STS). Subsequently cells were lysed with a lysis buffer containing the caspase-3/7 substrate Z-DEVD-R110 and were incubated at room temperature until further analysis. The fluorescence was detected with the TECAN Inifinite® M200 plate reader at excitation/emission wavelength 485/520 nm. The blank value was subtracted from each value and the relative caspase-3/7 activity was calculated compared to the DMSO treated cells.
(§6) These findings correlate with our results from the cell viability assays for these indoloquinolizine.

For another experiment, the system named is HCT116 cells. The experiment is described as follows: Apo-ONE homogeneous caspase-3/7 assay (apoptosis). The experiment is classed as cell-based, human. The following applies: HCT116, 42 h of treatment. Here is the method: as §1, §4, §5, §6
For experiment [4], the system named is HeLa cells. The experiment is described as follows: Apo-ONE homogeneous caspase-3/7 assay (apoptosis). The following applies: 42 h of treatment. Format: cell-based, human. The protocol:
as §1, §4, §5, §6

Experiment [5] relates to HeLa cells. The experiment is described as follows: WST-1 cell viability and proliferation assay. The experiment is classed as cell-based, human. The following applies: 19 h; for cell proliferation rate (percent of DMSO control): 50 μM; for IC50: calculated from two and three experiments respectively. Here is the method: as §1, §2, §3
In a further experiment the test system is PC3 cell line. The experiment is described as follows: Apo-ONE homogeneous caspase-3/7 assay (apoptosis). Format: cell-based. The settings on record: PC3, 42 h of treatment. The protocol:
as §1, §4, §5, §6

The next experiment deals with Saos2 cells. The experiment is described as follows: Apo-ONE homogeneous caspase-3/7 assay (apoptosis). The following applies: Saos2, 42 h of treatment. The experiment is classed as cell-based. The protocol: as §1, §4, §5, §6
The next experiment deals with HT29 cell line. The experiment is described as follows: Apo-ONE homogeneous caspase-3/7 assay (apoptosis). Format: cell-based. The settings on record: HT29, 42 h of treatment. Here is the method:
as §1, §4, §5, §6

For the compound `COC(=O)C1=CC(C(=O)c2ccccc2O)=CN2CCc3c([nH]c4ccccc34)C12C(=O)OC` (single isomer, unassigned; (-)) [(−)-1-01, Dimethyl-3-(2-hydroxybenzoyl)-6,7,12,12b-tetrahydroindolo[2,3a]quinolizine-1,12b-dicarboxylate], the “cells in G1 phase” value in the experiment with HeLa cells [1] (25 μM) is on record as 9%; in the experiment with HeLa cells [1] (50 μM), 8%. In addition, the “cells in G2/M phase” value in the experiment on HeLa cells [1] (25 μM) came to 38%; in the experiment with HeLa cells [1] (50 μM) it was 40%. Moreover, the figures for the mitotic index with HeLa cells [1] (25 μM) and in the experiment on HeLa cells [1] (50 μM) were 0.38 and 0.40, respectively. Besides, the “reduction in cell viability” value in experiment [2] and in experiment [3] was “only a slight reduction in cell viability” each time. The “decrease in the proliferation rate compared with HeLa” value in the experiment on osteosarcoma cells Saos2 was “more dramatic”. In the experiment on all cell lines but Saos2, the “impact on the apoptosis” value is listed as “did not have any impact on the apoptosis”. Further, the “activation of caspase-3/7” value with HCT116 cells, with HeLa cells [4] and in the experiment with Saos2 cells was “concentration dependent increase” each time. Besides, the “cell proliferation rate (percent of DMSO control)” value in the experiment with HeLa cells [5] was 60%. Further, the IC50 (in general, the point on the concentration scale where inhibition reaches its midpoint) with HeLa cells [5] is 28.4 ± 0.61 µM. Moreover, the caspase-3/7 activity detected entry with PC3 cell line and with HT29 cell line was “only at the 50 μM concentration” throughout.
Consider `COC(=O)C1=CC(C(=O)c2ccccc2O)=CN2CCc3c([nH]c4ccc(OC)cc34)C12C(=O)OC` (single isomer, unassigned; (-)) [(−)-1-04, Dimethyl-3-(2-hydroxybenzoyl)-9-methoxy-6,7,12,12b-tetrahydro-indolo[2,3-a]quinolizine-1,12b-dicarboxylate], for which the “reduction in cell viability” value in experiment [2] and in experiment [3] was “only a slight reduction in cell viability” throughout. Further, the “decrease in the proliferation rate compared with HeLa” value with osteosarcoma cells Saos2 was “more dramatic”. Besides, the “impact on the apoptosis” value in the experiment on all cell lines but Saos2 was “did not have any impact on the apoptosis”. In addition, the “activation of caspase-3/7” value in the experiment with HCT116 cells, with HeLa cells [4] and with Saos2 cells was “concentration dependent increase” each time. The “cell proliferation rate (percent of DMSO control)” value in the experiment on HeLa cells [5] is on record as 67%. The IC50 with HeLa cells [5] (Homo sapiens) is 15.7 ± 1.43 µM. Also, the caspase-3/7 activity detected entry with PC3 cell line and in the experiment with HT29 cell line was “only at the 50 μM concentration” each time.

(Values after patent publication US20120316192A1, “SUBSTITUTED INDOLO [2,3-A] QUINOLIZINES” (priority 2011, published 2012).)
